Measurements reported in patent US8349801B2, “Peptide ligands for G-protein coupled receptors” (priority 2006, dated 2013).
No end group written: not given here.

System: Isoproterenol induced rats
Experiment: Cardiac remodeling induced by Isoproterenol
Type: in vivo, Wistar rats
Settings: 1 ug/hour/Kg osmotic minipump, partial data
Method: The effect of the peptides […] (SEQ ID NO:10), […]-dimer ([…]) (SEQ ID […]), P33_V (SEQ ID NO:7), P33-dimer (P33_D) (SEQ ID NO:6) on cardiac remodeling, was tested by determining their effect on heart hypertrophy and fibrosis (deposition of collagen I, III, and fibronectin) induced by Isoproterenol. Losartan (an antagonist of the known angiotensin II receptor, AT1, Kucharewicz et al., 2002; Hypertension, (40): 774-779) was used as positive control. The negative control group was treated with vehicle only. Additional control groups included rats not-treated with isoproterenol which were treated with the peptides, with Losartan or with the vehicle. The analysis included determination of the left ventricle mass and morphometry. In addition, immunofuorescence analysis of fibronectin and collagens I and III deposition was performed by confocal microscopy. Animals Acclimatization: Male Wistar rats Age: 13-14 weeks (250 to 300 g) were maintained in the animal facilities for 7 days before the beginning of the experiment. The animals were exposed to a brightness circle of light-dark cycle of 12 hs (day-06:00 to 18:00; night-18:00 to 06:00), and the room temperature was kept at 23±2° C. Heart failure was induced by daily injections of isoproterenol (2 mg/kg/day, subcutaneously) during 7 days. […] Immunofluorescence-labeling and quantitative confocal microscopy was used to investigate the distribution and quantity of collagen types I, III and fibronectin present in the left ventricles. […] Optimal confocal settings (aperture, gain and laser power) were determined at the beginning of each imaging session and then held constant during the analysis of all the samples. […] For quantitative analysis of collagens I, III, and fibronectin, the ImageTool 2.0 image analysis program was used ([…].edu/[…]) to measure the fluorescence intensity in images randomly selected. […]

“FLGYCIYLNRKRRGDPAFKRRLRD (also: dimer via cysteine; listed as Homo sapiens) [Peptide P61_dimer]” was tested. Which “effect as measured by Fibronectin deposition” value (3 out of 6 animals) did it give?
Its value is “not significant”.

What about the “heart hypertrophy induced by Isoproterenol, as indicated by deposition of fibronectin, Collagen I and Collagen III” value (3 out of 6 animals of each group) of the same sequence?
The value was “effective in reducing the heart hypertrophy”.
